In US20090149455A1, “Use of Triazolopyrimidines for Controlling Plant Diseases on Legumes” (Bayer CropScience AG, priority 2005, published 2009):
Read-outs that look alike come from different tables or passages of the source.

Assay: log p
Assay type: physicochemical

Compound	log p	log p (read-out: log p)
CC1CCN(c2c(-c3ccc(F)cc3F)c(Cl)nc3ncnn23)CC1 [Example 190]	3.54	
Fc1ccccc1-c1c(Cl)nc2ncnn2c1N1CCCCC1 [Example 164]	3.01	
Fc1ccc(-c2c(Cl)nc3ncnn3c2N2CCCC2)c(F)c1 [Example 185]	2.62	
C[C@H](Nc1c(-c2cc(C(F)(F)F)ccc2Cl)c(Cl)nc2ncnn12)C(F)(F)F [Example 40]	3.4	
CCCNc1c(-c2ccccc2F)c(Cl)nc2ncnn12 [Example 150]	2.43	
CC1C=NN(c2c(-c3ccccc3Cl)c(Cl)nc3ncnn23)CC1C (stereo not shown) [Example 277]	3.1	
C=C(C)CN(CC)c1c(-c2c(F)cc(F)cc2F)c(Cl)nc2ncnn12 [Example 90]	3.6	
C=C(C)CNc1c(-c2ccccc2F)c(Cl)nc2ncnn12 [Example 91]	2.48	
Fc1ccc(-c2c(Cl)nc3ncnn3c2N2CCCN2)c(Cl)c1 [Example 261]	2.39	
CCCCNc1c(-c2ccc(F)cc2F)c(Cl)nc2ncnn12 [Example 149]	2.9	
CC(Nc1c(-c2c(F)c(F)c(F)c(F)c2F)c(Cl)nc2ncnn12)C(F)(F)F (stereo not shown) [Example 48]	3.3	
C=C(C)CN(CC)c1c(-c2c(Cl)cccc2Cl)c(Cl)nc2ncnn12 [Example 99]	3.92	
CC(C)CNc1c(-c2ccccc2)c(Cl)nc2ncnn12 [Example 127]	2.79	
CC1CCCCN1c1c(-c2ccc(F)cc2F)c(Cl)nc2ncnn12 (stereo not shown) [Example 188]	3.44	
Fc1cccc(F)c1-c1c(Cl)nc2ncnn2c1N1CCCCC1C(F)(F)F (stereo not shown) [Example 202]	3.11	
Clc1ccc(-c2c(Cl)nc3ncnn3c2N2CCCCO2)c(Cl)c1 [Example 245]	3.51	
Fc1ccc(-c2c(Cl)nc3ncnn3c2N2CCC(C(F)(F)F)CC2)c(F)c1 [Example 193]	3.34	
CC1CCN(c2c(-c3ccccc3C(F)(F)F)c(Cl)nc3ncnn23)CC1 [Example 279]	3.8	
CCCNc1c(-c2c(F)c(F)c(F)c(F)c2F)c(Cl)nc2ncnn12 [Example 152]	3.05	
Clc1ccccc1-c1c(Cl)nc2ncnn2c1N1CCCC1 [Example 247]	2.72	
Clc1ccccc1-c1c(Cl)nc2ncnn2c1N1CCCCC1 [Example 257]	3.26	
CC(C)(Nc1c(-c2c(F)c(F)c(F)c(F)c2F)c(Cl)nc2ncnn12)C(F)(F)F [Example 17]	3.75	

Compound	log p	log p (read-out: log p)
CC1CCCCN1c1c(-c2ccccc2)c(Cl)nc2ncnn12 (stereo not shown) [Example 259]	3.35	
CC1CNN(c2c(-c3ccccc3Cl)c(Cl)nc3ncnn23)CC1C (stereo not shown) [Example 278]	3.3	
CC1=CCCN(c2c(-c3c(F)cc(C(F)(F)F)cc3Cl)c(Cl)nc3ncnn23)C1 [Example 183]	4.23	
CC1CNN(c2c(-c3ccc(F)cc3Cl)c(Cl)nc3ncnn23)CC1C (stereo not shown) [Example 266]	3.43	
CCN(CC)c1c(-c2c(F)c(F)c(F)c(F)c2F)c(Cl)nc2ncnn12 [Example 22]	3.44	
C=C(C)CN(CC)c1c(-c2c(F)cccc2F)c(Cl)nc2ncnn12 [Example 95]	3.42	
CC(C)CC(C)Nc1c(-c2ccc(F)cc2F)c(Cl)nc2ncnn12 (stereo not shown) [Example 81]	3.53	
Fc1cc(F)c(-c2c(Cl)nc3ncnn3c2N2CCCO2)c(F)c1 [Example 203]	2.4	
CC(Nc1c(-c2ccc(F)cc2Cl)c(Cl)nc2ncnn12)C(F)(F)F (stereo not shown) [Example 46]	3.04	
CC(C)[C@@H](C)Nc1c(-c2cc(F)ccc2F)c(Cl)nc2ncnn12 [Example 78]	3.05	
CCC(C)Nc1c(-c2ccc(Cl)cc2Cl)c(Cl)nc2ncnn12 (stereo not shown) [Example 8]	3.54	
CC1=CCCN(c2c(-c3ccc(F)cc3F)c(Cl)nc3ncnn23)C1 [Example 192]	3.3	
CCC(C)Nc1c(-c2ccccc2)c(Cl)nc2ncnn12 (stereo not shown) [Example 7]	2.78	
Fc1cc(C(F)(F)F)cc(Cl)c1-c1c(Cl)nc2ncnn2c1N1CCOCC1 [Example 175]	3.07	
C=CCN(CC)c1c(-c2ccc(F)cc2F)c(Cl)nc2ncnn12 [Example 15]	3.19	
C[C@H](Nc1c(-c2ccc(C(F)(F)F)cc2F)c(Cl)nc2ncnn12)C(F)(F)F [Example 45]	3.33	
Clc1nc2ncnn2c(N2CCCCC2)c1-c1ccccc1 [Example 251]	3.05	
CCN(CC)c1c(-c2ccccc2F)c(Cl)nc2ncnn12 [Example 18]	2.82	
CC(Nc1c(-c2c(F)cccc2F)c(Cl)nc2ncnn12)C(F)(F)F (stereo not shown) [Example 47]	2.64	
CCNc1c(-c2c(F)c(F)c(F)c(F)c2F)c(Cl)nc2ncnn12 [Example 25]	2.72	
Fc1ccccc1-c1c(Cl)nc2ncnn2c1N1CCOCC1 [Example 200]	2.09	
CC(Nc1c(-c2c(F)cc(C(F)(F)F)cc2F)c(Cl)nc2ncnn12)C(F)(F)F (stereo not shown) [Example 56]	3.09	

Compound	log p	log p (read-out: log p)
Cc1cc(C)c(-c2c(Cl)nc3ncnn3c2N2CCOCC2)c(C)c1 [Example 161]	2.8	
CC(Nc1c(-c2ccccc2Cl)c(Cl)nc2ncnn12)C(F)(F)F (stereo not shown) [Example 57]	2.88	
CCN(CC)c1c(-c2c(F)cc(F)cc2F)c(Cl)nc2ncnn12 [Example 26]	3.05	
CCC(C)Nc1c(-c2ccc(F)cc2F)c(Cl)nc2ncnn12 (stereo not shown) [Example 6]	2.85	
CC1CCN(c2c(-c3c(F)cc(F)cc3F)c(Cl)nc3ncnn23)CC1 [Example 156, 5-Chloro-7-(4-methylpiperidin-1-yl)-6-(2,4,6-trifluorophenyl)[1,2,4]triazolo[1,5-a]-pyrimidine]		3.6
Fc1ccccc1-c1c(Cl)nc2ncnn2c1N1CCSCC1 [Example 165]	2.68	
CC1CCN(c2c(-c3ccc(F)cc3Cl)c(Cl)nc3ncnn23)NC1 (stereo not shown) [Example 265]	3.22	
C[C@H](Nc1c(-c2cccc(C(F)(F)F)c2Cl)c(Cl)nc2ncnn12)C(F)(F)F [Example 51]	3.36	
Fc1cccc(F)c1-c1c(Cl)nc2ncnn2c1N1CCCO1 [Example 157]	2.07	
C[C@H](Nc1c(-c2c(F)cccc2Cl)c(Cl)nc2ncnn12)C(C)(C)C [Example 71]	3.63	
CC1(C)CCN(c2c(-c3ccc(F)cc3F)c(Cl)nc3ncnn23)CC1 [Example 191]	3.8	
Fc1cc(C(F)(F)F)cc(Cl)c1-c1c(Cl)nc2ncnn2c1N1CCCC1 [Example 176]	3.5	
C=C(C)CN(CC)c1c(-c2cccc(C(F)(F)F)c2Cl)c(Cl)nc2ncnn12 [Example 102]	4.12	
C=C(C)CN(C)c1c(-c2c(F)cc(C(F)(F)F)cc2Cl)c(Cl)nc2ncnn12 [Example 96]	4.05	
CNc1c(-c2ccccc2F)c(Cl)nc2ncnn12 [Example 86]	1.86	
C[C@H](Nc1c(-c2c(F)cc(C(F)(F)F)c(F)c2F)c(Cl)nc2ncnn12)C(F)(F)F [Example 41]	3.6	
Cc1nc2ncnn2c(N[C@H](C)C(C)C)c1-c1c(F)cccc1Cl [Example 79]	2.7	
Clc1ccccc1-c1c(Cl)nc2ncnn2c1N1CCCN1 [Example 263]	2.2	
CCNc1c(-c2c(F)cc(C(F)(F)F)cc2Cl)c(Cl)nc2ncnn12 [Example 21]	3.1	
C[C@H](Nc1c(-c2cc(F)ccc2F)c(Cl)nc2ncnn12)C(F)(F)F [Example 62]	2.74	
CC1C=NN(c2c(-c3c(F)cc(F)cc3F)c(Cl)nc3ncnn23)CC1 (stereo not shown) [Example 273]	2.85	
CC(C)C(C)Nc1c(-c2c(F)cc(F)cc2F)c(Cl)nc2ncnn12 (stereo not shown) [Example 73]	3.2	

Compound	log p	log p (read-out: log p)
CCC(C)CNc1c(-c2c(F)cc(F)cc2F)c(Cl)nc2ncnn12 (stereo not shown) [Example 11]	3.26	
CN(C)c1c(-c2c(F)cccc2F)c(Cl)nc2ncnn12 [Example 87]	2.19	
C[C@@H](Nc1c(-c2c(F)cccc2Cl)c(Cl)nc2ncnn12)C(C)(C)C [Example 70]	3.58	
Fc1c(F)c(F)c(-c2c(Cl)nc3ncnn3c2N2CCCCC2)c(F)c1F [Example 198]	3.61	
CC1CCN(c2c(-c3ccccc3Cl)c(Cl)nc3ncnn23)CC1 [Example 256]	3.71	
Fc1ccc(-c2c(Cl)nc3ncnn3c2N2CCCC2C(F)(F)F)c(F)c1 (stereo not shown) [Example 210]	3.2	
CC(Nc1c(-c2c(F)cc(F)cc2F)c(Cl)nc2ncnn12)C(C)(C)C (stereo not shown) [Example 2]	3.54	
CC(Nc1c(-c2c(Cl)cc(OC(F)(F)F)cc2Cl)c(Br)nc2ncnn12)C(F)(F)F (stereo not shown) [Example 65]	3.92	
Fc1cc(F)c(-c2c(Cl)nc3ncnn3c2N2CCCCC2)c(F)c1 [Example 173]	3.53	
CC1CCN(c2c(-c3ccccc3Cl)c(Cl)nc3ncnn23)NC1 (stereo not shown) [Example 271]	3	
C=C(C)CN(C)c1c(-c2ccc(F)cc2F)c(Cl)nc2ncnn12 [Example 98]	3.21	
CSc1cc(F)cc(F)c1-c1c(Cl)nc2ncnn2c1N[C@@H](C)C(F)(F)F [Example 38]	3.17	
CC(C)Nc1c(-c2ccccc2F)c(Cl)nc2ncnn12 [Example 141]	2.42	
CC(C)C(C)Nc1c(-c2ccccc2)c(Cl)nc2ncnn12 (stereo not shown) [Example 74]	3.14	
CC(C)(C)Nc1c(-c2c(F)cc(C(F)(F)F)cc2Cl)c(Cl)nc2ncnn12 [Example 153]	3.9	
Fc1c(F)c(F)c(-c2c(Cl)nc3ncnn3c2N2CCCC2)c(F)c1F [Example 207]	3.11	
Fc1cc(C(F)(F)F)cc(Cl)c1-c1c(Cl)nc2ncnn2c1N1CC=CCC1 [Example 179]	3.85	
CC1CCCN1c1c(-c2ccccc2)c(Cl)nc2ncnn12 (stereo not shown) [Example 258]	2.87	
Fc1c(F)c(F)c(-c2c(Cl)nc3ncnn3c2N2CCOCC2)c(F)c1F [Example 199]	2.69	
Clc1nc2ncnn2c(N2CCCC2)c1-c1ccccc1 [Example 250]	2.5	
CC1CN(c2c(-c3ccccc3F)c(Cl)nc3ncnn23)CC(C)O1 (stereo not shown) [Example 162]	2.67	
CC(C)C(C)Nc1c(-c2c(F)cc(F)cc2F)c(Cl)nc2ncnn12 (stereo not shown) [Example 3]	3.2	
